Experimental findings from patent publication US20110144303A1, “Biologically Active Peptidomimetic Macrocycles” (AILERON Therapeutics, Inc., priority 2008, published 2011) are described below.

“And” between values parts separate entries of the source, which are not always exact repeats. Equal values may be shown once. Read-outs that look alike come from different tables or passages of the source. Starred links: 1 amine or outer side, 2 acyl side, 3 side chain; linkers in the order of their positions; H or OH if unused. Positions of bridges follow the written chain, without caps; N, C: chain ends. Non-standard residues stand in square brackets, D forms with d. Residues, ends and D or L forms follow the SMILES beside them. ξ: configuration not given here. Nle = CCCC[C@H](N)C(=O)O; ξαMeC = CC(N)(CS)C(=O)O; X1 = C(=CC[*:2])C[*:1]; X2 = C(CC[*:2])C[*:1]

Data set [1] can be described thus: Pepsin Stability: (E/S 1:50). The text has this:
Table printed on a drawing sheet, Figure 14
(§1) Title: Pepsin Stability: (E/S 1:50)
The patent's description of the figure: FIG. 14 describes the comparative pepsin stability of SP-33 and SP-34 peptidomimetic macrocycles of the invention.
First reader's note: The title is the heading of the plot printed under the table; the table gives the rate constants and half-lives of the pepsin digestion, fitted over the named time points.

Data set [2] is described as follows: Pepsin Stability: (E/S 1:50).
Source text: Table printed on a drawing sheet, Figure 13
as §1
The patent's description of the figure: FIG. 13 describes the comparative pepsin stability of SP-36 and SP-37 peptidomimetic macrocycles of the invention.
First reader's note: Each peptide appears twice (duplicate runs); the title is printed between the table and the plot of the same figure, and NC/NA are not defined on the sheet.
The source holds these as a separate data set.

In a further data set the target is GST-Bcl-2. Put plainly: Kd. As for the experimental part: Table printed on a drawing sheet, Figure 5
The patent's description of the figure: FIG. 5 depicts binding properties to GST-Bcl-2 of SP-4 and SP-54 peptidomimetic macrocycles.
First copying reader's note: Kd values belong to the plot beside the table, titled 'Saturation Binding Curves vs. 2 µM Receptor, 1x PBS + 5 mM CHAPS, 2.5% DMSO', with GST-Bcl-2 as the receptor.
Where the first naming reader finds the target: description_of_the_figure: FIG. 5 depicts binding properties to GST-Bcl-2 of SP-4 and SP-54 peptidomimetic macrocycles.

The next data set deals with GST-Mcl-1. The data set is described as follows: Kd. The method, then:
Table printed on a drawing sheet, Figure 4
The patent's description of the figure: FIG. 4 depicts binding properties to GST-Mcl-1 of SP-4 and SP-54 peptidomimetic macrocycles.
First copying reader's note: Kd values belong to the adjacent saturation binding plot (stapled peptides + GST-Mcl-1, 2 µM receptor, 1x PBS + 5 mM CHAPS, 2.5% DMSO).
Where the first naming reader finds the target: description_of_the_figure: FIG. 4 depicts binding properties to GST-Mcl-1 of SP-4 and SP-54 peptidomimetic macrocycles.

Data set [3] in a line: Pharmacokinetics of SP-4 and SP-54 in Rats following IV dose. The text has this: Table printed on a drawing sheet, Figure 19
Title: Pharmacokinetics of SP-4 and SP-54 in Rats following IV dose
The patent's description of the figure: FIG. 19 illustrates the pharmacokinetic properties of SP-4 and SP-54 peptidomimetic macrocycles in rats.
First reader's note: Pharmacokinetic parameters in rats after IV dosing; the table is printed under a concentration-time plot that is not copied.

Data set [4] can be described thus: Pharmacokinetics of SP-43 and SP-42 in Rat following IV dose. The settings on record: in vivo. The text has this: Table printed on a drawing sheet, Figure 20
Title: Pharmacokinetics of SP-43 and SP-42 in Rat following IV dose
The patent's description of the figure: FIG. 20 illustrates the pharmacokinetic properties of SP-42 and SP-43 peptidomimetic macrocycles in rats.
First reader's note: Pharmacokinetic parameters in rat after an IV dose; the table stands under a concentration-time plot that is not copied.

For the molecule `CCCC[C@H](NC(=O)C1(C)CSCCCCSCC(C)(NC(=O)[C@H](C)NC(=O)[C@H](CC(C)C)NC(=O)[C@H](Cc2c[nH]cn2)NC(=O)[C@H](CCCNC(=N)N)NC(=O)[C@H](C)NC(=O)[C@@H](NC(=O)[C@H](CC(N)=O)NC(=O)[C@H](CCCNC(=N)N)NC(=O)[C@@H](NC(=O)[C@@H](NC(=O)[C@H](CC(=O)O)NC(C)=O)[C@@H](C)CC)[C@@H](C)CC)[C@@H](C)CC)C(=O)N[C@@H](C(C)C)C(=O)NCC(=O)N[C@@H](CC(=O)O)C(=O)N1)C(=O)N[C@@H](CC(=O)O)C(=O)N[C@@H](CCCNC(=N)N)C(=O)N[C@@H](CO)C(=O)N[C@H](C(N)=O)[C@@H](C)CC` (stereo partly drawn) [SP-34, Ac-DIIRNIARHLA$c4VGD$c4NleDRSI-NH2] (Ac-DIIRNIARHLA[ξαMeC]VGD[ξαMeC][Nle]DRSI-NH2; linker 12-16 via X2), in data set [1], the “K1 min^-1” value stood at 0.0019 min⁻¹ and the “half-life^1” value is 360 min.

In the case of `CCCC[C@H](NC(=O)[C@@H]1CSCC=CCSC[C@H](NC(=O)[C@H](C)NC(=O)[C@H](CC(C)C)NC(=O)[C@H](Cc2c[nH]cn2)NC(=O)[C@H](CCCNC(=N)N)NC(=O)[C@H](C)NC(=O)[C@@H](NC(=O)[C@H](CC(N)=O)NC(=O)[C@H](CCCNC(=N)N)NC(=O)[C@@H](NC(=O)[C@@H](NC(=O)[C@H](CC(=O)O)NC(C)=O)[C@@H](C)CC)[C@@H](C)CC)[C@@H](C)CC)C(=O)N[C@@H](C(C)C)C(=O)NCC(=O)N[C@@H](CC(=O)O)C(=O)N1)C(=O)N[C@@H](CC(=O)O)C(=O)N[C@@H](CCCNC(=N)N)C(=O)N[C@@H](CO)C(=O)N[C@H](C(N)=O)[C@@H](C)CC` [SP-36, Ac-DIIRNIARHLA#cVGD#cNleDRSI-NH2] (Ac-DIIRNIARHLACVGDC[Nle]DRSI-NH2; linker 12-16 via X1), in data set [2], the “K1 min^-1” value is 0.095 min⁻¹ and 0.082 min⁻¹; the “K2 min^-1” value is 0.0290 min⁻¹ and 0.024 min⁻¹; the “half-life^1” value is 7.3 min and 8.5 min; the “half-life^2” value is 24 min and 29 min.

On GST-Bcl-2, `CC[C@H](C)[C@H](NC(C)=O)C(=O)N[C@@H](Cc1c[nH]c2ccccc12)C(=O)N[C@H](C(=O)N[C@@H](C)C(=O)N[C@@H](CCC(N)=O)C(=O)N[C@@H](CCC(=O)O)C(=O)N[C@@H](CC(C)C)C(=O)N[C@@H](CCCNC(=N)N)C(=O)N[C@H]1CCCC=CCCC[C@@H](C(=O)N[C@@H](Cc2ccccc2)C(=O)N[C@@H](CC(N)=O)C(=O)N[C@@H](C)C(=O)N[C@@H](Cc2ccc(O)cc2)C(=O)N[C@@H](Cc2ccc(O)cc2)C(=O)N[C@@H](C)C(=O)N[C@@H](CCCNC(=N)N)C(=O)N[C@@H](CCCNC(=N)N)C(N)=O)NC(=O)[C@H](CC(=O)O)NC(=O)CNC(=O)[C@H]([C@@H](C)CC)NC1=O)[C@@H](C)CC` [SP-54, Ac-IWIAQELR#IGD#FNAYYARR-NH2] came in with a Kd of 97 nM. Moreover, the dissociation constant Kd on GST-Mcl-1 worked out at 22 nM. In data set [3], the “AUC,inf” value was 12700 ng·h/mL, the “Cl” value amounted to 4.02 mL/min/kg, the “Vss” value worked out at 0.126 L/kg and the “Vz” value was 1.206 L/kg. Also, in data set [3] (rat, in vivo, iv), the Cmax was 27100 ng/mL, the MRT stood at 31.2 min and the half-life was 60 min.

As to `CC(=O)N[C@@H](CCC(N)=O)C(=O)N[C@@H](CO)C(=O)N[C@@H](CCC(N)=O)C(=O)N[C@@H](CCC(N)=O)C(=O)N[C@H](C(=O)N[C@@H](Cc1ccccc1)C(=O)N[C@@H]1CCCCCCC=CCCC[C@@H](C(=O)N[C@@H](CCC(N)=O)C(=O)N[C@@H](CC(N)=O)C(N)=O)NC(=O)[C@H](CC(C)C)NC(=O)[C@H](CC(C)C)NC(=O)[C@H](CCCNC(=N)N)NC(=O)[C@H](Cc2c[nH]c3ccccc23)NC(=O)[C@H](CC(C)C)NC(=O)[C@H](CC(N)=O)NC1=O)[C@@H](C)O` [SP-42, Ac-QSQQTF#r8NLWRLL#QN-NH2], in data set [4], the peak level (Cmax) was 41200 ng/mL and the MRT turned out to be 66 min.

Take `CCCC[C@H](NC(=O)[C@@H]1CSCCCCSC[C@H](NC(=O)[C@H](C)NC(=O)[C@H](CC(C)C)NC(=O)[C@H](Cc2c[nH]cn2)NC(=O)[C@H](CCCNC(=N)N)NC(=O)[C@H](C)NC(=O)[C@@H](NC(=O)[C@H](CC(N)=O)NC(=O)[C@H](CCCNC(=N)N)NC(=O)[C@@H](NC(=O)[C@@H](NC(=O)[C@H](CC(=O)O)NC(C)=O)[C@@H](C)CC)[C@@H](C)CC)[C@@H](C)CC)C(=O)N[C@@H](C(C)C)C(=O)NCC(=O)N[C@@H](CC(=O)O)C(=O)N1)C(=O)N[C@@H](CC(=O)O)C(=O)N[C@@H](CCCNC(=N)N)C(=O)N[C@@H](CO)C(=O)N[C@H](C(N)=O)[C@@H](C)CC` [SP-33, Ac-DIIRNIARHLA#c4VGD#c4NleDRSI-NH2] (Ac-DIIRNIARHLACVGDC[Nle]DRSI-NH2; linker 12-16 via X2): in data set [1], the “K1 min^-1” value turned out to be 0.054 min⁻¹, the “K2 min^-1” value came out at 0.0046 min⁻¹, the “half-life^1” value is on record as 13 min and the “half-life^2” value turned out to be 150 min.
